Source: PubChem BioAssay (NCI)
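Exposure lasted 48 hours, with cells grown in 96-well plates and compounds tested at five concentrations. GI50 is the concentration that inhibits growth by half. TGI is the concentration that stops growth completely.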

Assays:
Test in all cases: NCI anticancer screen, dose series, 48 h
CAKI-1 renal = test system: CAKI-1 renal
MCF7 breast = test system: MCF7 breast
K-562 leukemia = test system: K-562 leukemia
A498 renal = test system: A498 renal
786-0 renal = test system: 786-0 renal
SK-MEL-28 melanoma = test system: SK-MEL-28 melanoma
NCI-H226 lung = test system: NCI-H226 lung
SNB-75 CNS = test system: SNB-75 CNS
OVCAR-3 ovarian = test system: OVCAR-3 ovarian
RXF 393 renal = test system: RXF 393 renal

| SMILES | TGI (CAKI-1 renal) [µM] | TGI (MCF7 breast) [µM] | TGI (K-562 leukemia) [µM] | TGI (A498 renal) [µM] | TGI (786-0 renal) [µM] | TGI (SK-MEL-28 melanoma) [µM] | TGI (NCI-H226 lung) [µM] | TGI (SNB-75 CNS) [µM] | TGI (OVCAR-3 ovarian) [µM] | TGI (RXF 393 renal) [µM] | GI50 (CAKI-1 renal) [µM] | GI50 (NCI-H226 lung) [µM] | GI50 (MCF7 breast) [µM] | GI50 (K-562 leukemia) [µM] | GI50 (SNB-75 CNS) [µM] | GI50 (A498 renal) [µM] | GI50 (RXF 393 renal) [µM] | GI50 (SK-MEL-28 melanoma) [µM] | GI50 (OVCAR-3 ovarian) [µM] |
| --- | --- | --- | --- | --- | --- | --- | --- | --- | --- | --- | --- | --- | --- | --- | --- | --- | --- | --- | --- |
| CCN(CC)C(=O)Cn1c2c(c3ccccc31)CCCC2 | > 100 | > 100 | > 100 | > 100 | > 100 | > 100 |  |  |  |  |  |  |  |  |  |  |  |  |  |
| COc1ccc2cc(C(C)C(=O)N3C(=O)OCC3(C)C)ccc2c1 (centres undefined) |  | > 100 | > 100 | > 100 | > 100 | > 100 | > 100 | > 100 | > 100 |  |  |  |  |  |  |  |  |  |  |
| CC(C)CCOC(=O)NC(Nc1ccc(F)cc1)(C(F)(F)F)C(F)(F)F | > 100 | > 100 | > 100 | > 100 | > 100 | > 100 | > 100 | > 100 | > 100 | > 100 |  |  |  |  |  |  |  |  |  |
| CC(C)(C)C1=C(Br)C(O)(C(C)(C)C)OP1(=O)c1ccccc1 (centres undefined) | > 100 | 43.1 | > 100 | > 100 | > 100 | > 100 |  | > 100 | > 100 | > 100 |  |  |  |  |  |  |  |  |  |
| Cn1c(=O)sc2cc(C(=S)N3CCCCC3)ccc21 | > 100 | > 100 | > 100 | > 100 | > 100 | > 100 | > 100 | 86.5 | > 100 | > 100 |  |  |  |  |  |  |  |  |  |
| CCCCN(C)/N=N/c1nc[nH]c1C(N)=O | > 100 | > 100 | > 100 | > 100 |  | > 100 | > 100 | > 100 | > 100 | > 100 |  |  |  |  |  |  |  |  |  |
| Oc1ccc(-c2nc3ccccc3s2)cc1 | 58.3 | > 100 | > 100 | > 100 | > 100 | > 100 | > 100 | > 100 | > 100 | > 100 |  |  |  |  |  |  |  |  |  |
| Cc1c2cccc-2ccc2c3ccccc3n(C(=O)c3ccc(Cl)cc3)c12 | > 100 | > 100 | > 100 | > 100 | > 100 | > 100 | > 100 | > 100 | > 100 | > 100 |  |  |  |  |  |  |  |  |  |
| COc1cc(Oc2nc3cc(F)c(F)cc3nc2-c2ccccc2)cc(OC)c1OC | > 100 | > 100 |  | > 100 | > 100 | > 100 | > 100 | 51.2 | > 100 | > 100 |  |  |  |  |  |  |  |  |  |
| COc1cc2nc(-c3cccs3)nc(Nc3cccc(Cl)c3)c2cc1OC | > 100 | > 100 | > 100 | > 100 | > 100 | > 100 | > 100 | > 100 | > 100 |  |  |  |  |  |  |  |  |  |  |
| O=C(OCc1ccccc1)N1CCNCCNCCN(C(=O)OCc2ccccc2)CCNCC1 | 73.8 | 32 | 29.8 | 70.1 | 28.4 | 29.1 | > 100 | 53 | > 100 |  |  |  |  |  |  |  |  |  |  |
| Cc1c2ccncc2c(C)c2c1[nH]c1ccc(OCCN(C)C)cc12 | 1.89 | 0.785 | 5.21 | 2.77 |  | 2.01 | 0.976 | 1.31 | 1.07 | 0.906 |  |  |  |  |  |  |  |  |  |
| COC(=O)Cn1cnc2c(Cl)nc(Nc3ccccc3)nc21 |  | > 100 | > 100 | > 100 | > 100 | > 100 | > 100 | > 100 | 50.7 | > 100 |  |  |  |  |  |  |  |  |  |
| CCOC(=O)CCC(C(=O)OCC)n1nnc2cc(Nc3c(C)[n+]([O-])c4cc(F)c(OCC)cc4[n+]3[O-])ccc21 (centres undefined) | > 100 | > 100 | > 100 | > 100 | > 100 |  | > 100 | 57.2 | > 100 | 38.7 |  |  |  |  |  |  |  |  |  |
| NC(N)=NC1C(O)C(O)C(O)C(N=C(N)N)C1O (centres undefined) | > 100 | > 100 | > 100 | > 100 | > 100 | > 100 |  | > 100 | > 100 | > 100 |  |  |  |  |  |  |  |  |  |
| CCSC1=CC2(O)N(CCc3ccc(OC)c(OC)c3)C(=O)CC2(C(=O)OC)CC1=O (centres undefined) | > 100 | 40.3 | > 100 | > 100 | 34 | > 100 | > 100 |  | 33.6 |  |  |  |  |  |  |  |  |  |  |
| O=c1[nH]c(=O)n(C2OC(CO)C(O)C2O)cc1OCCCc1ccccc1 (centres undefined) | > 100 | > 100 |  | > 100 | > 100 | > 100 | > 100 |  | > 100 | > 100 |  |  |  |  |  |  |  |  |  |
| O=C(O)/C=C\C(=O)Nn1c(Cc2ccc(Cl)cc2)n[nH]c1=O | > 100 | > 100 | > 100 | > 100 | > 100 |  | > 100 |  | > 100 | > 100 |  |  |  |  |  |  |  |  |  |
| O=C(c1ccc(Cl)cc1)N1CCN=C1c1cc2ccccc2c2ccccc12 | 35.7 | 34.2 | 95.8 | 28.9 | 30.4 | 29.7 |  | 25.7 | 35.3 | 30.6 |  |  |  |  |  |  |  |  |  |
| S=C1SC(=Nc2ccccc2)C(=Nc2ccccc2)N1c1ccc2ccccc2c1 | > 100 | > 100 | > 100 | > 100 |  | > 100 | > 100 | > 100 | > 100 | > 100 |  |  |  |  |  |  |  |  |  |
| N/C(=N\N=C\c1ncccc1O)NO | 96.8 | > 100 | > 60.7 | > 100 |  | > 100 | 58.1 | > 62.6 | > 100 | > 100 |  |  |  |  |  |  |  |  |  |
| COc1ccccc1C1C(C#N)=C(N)Oc2n[nH]c(C)c21 (centres undefined) | > 100 | > 100 | > 100 | > 100 |  | > 100 | > 100 | > 100 | > 100 | > 100 | > 100 | 74.5 | > 100 | > 100 | > 100 | > 100 | > 100 | > 100 | > 100 |
